Assay results published in patent US10112935B2, “Indazolyl thiadiazolamines and related compounds for inhibition of Rho-associated protein kinase and the treatment of disease” (Lycera Corporation, priority 2015, dated 2018).

Legend:
[1] = target: GST-tagged human ROCK1 catalytic domain 1-477 (Homo sapiens (Human), UniProt Q13464); assay: Inhibition of Rho-associated protein kinase isoform 1 (LANCE Ultra ULight-CREBtide FRET kinase assay); type: biochemical; settings: 30 μM was the highest concentration analyzed
Description: (§1) Exemplary compounds were tested for ability to inhibit Rho-associated protein kinase isoform 1 (ROCK1) and Rho-associated protein kinase isoform 2 (ROCK2). Assay procedures and results are described below.
(§2) Protein constructs were purified from a baculovirus expression system. The peptide substrate was fluorescent LANCE® Ultra ULight-CREBtide: […] (PerkinElmer, # TRF0107-D). […] After a 90 minute incubation at room temperature on a shaker table, the kinase reaction was stopped by addition of 10 mM EDTA, and phosphorylation of the substrate was detected by adding 1 nM LANCE® Ultra Europium-anti-phospho-CREB (ser133) antibody (PerkinElmer, # TRF0200-D) and incubating for 60 minutes on a shaker at room temperature. The flurorescence resonance energy transfer (FRET) signals were read and analyzed on an Envision™ 2103 Multilabel Reader (Perkin Elmer).

[2] = target: GST-tagged human ROCK2 catalytic domain 1-553 (Homo sapiens (Human), UniProt O75116); assay: Inhibition of Rho-associated protein kinase isoform 2 (LANCE Ultra ULight-CREBtide FRET kinase assay); type: biochemical; settings: for IC50: 30 μM was the highest concentration analyzed; for Selectivity for ROCK2 over ROCK1 (IC50 ROCK1 / IC50 ROCK2): selectivity ROCK2 vs ROCK1
Description: as §1, §2

Sequence of GST-tagged human ROCK1 catalytic domain 1-477 (Q13464 1-477): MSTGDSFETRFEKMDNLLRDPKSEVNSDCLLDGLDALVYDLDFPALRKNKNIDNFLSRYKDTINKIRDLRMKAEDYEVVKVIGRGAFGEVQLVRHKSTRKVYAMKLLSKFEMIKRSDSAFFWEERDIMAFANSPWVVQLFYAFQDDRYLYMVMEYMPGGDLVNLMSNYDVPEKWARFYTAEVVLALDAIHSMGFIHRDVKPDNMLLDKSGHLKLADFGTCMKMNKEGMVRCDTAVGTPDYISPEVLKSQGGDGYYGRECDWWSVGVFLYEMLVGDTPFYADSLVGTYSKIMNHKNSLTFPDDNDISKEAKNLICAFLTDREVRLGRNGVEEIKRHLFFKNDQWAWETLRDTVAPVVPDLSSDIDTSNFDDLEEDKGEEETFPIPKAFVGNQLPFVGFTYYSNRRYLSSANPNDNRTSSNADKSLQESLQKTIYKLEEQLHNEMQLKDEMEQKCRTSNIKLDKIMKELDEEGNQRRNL
Sequence of GST-tagged human ROCK2 catalytic domain 1-553 (O75116 1-553): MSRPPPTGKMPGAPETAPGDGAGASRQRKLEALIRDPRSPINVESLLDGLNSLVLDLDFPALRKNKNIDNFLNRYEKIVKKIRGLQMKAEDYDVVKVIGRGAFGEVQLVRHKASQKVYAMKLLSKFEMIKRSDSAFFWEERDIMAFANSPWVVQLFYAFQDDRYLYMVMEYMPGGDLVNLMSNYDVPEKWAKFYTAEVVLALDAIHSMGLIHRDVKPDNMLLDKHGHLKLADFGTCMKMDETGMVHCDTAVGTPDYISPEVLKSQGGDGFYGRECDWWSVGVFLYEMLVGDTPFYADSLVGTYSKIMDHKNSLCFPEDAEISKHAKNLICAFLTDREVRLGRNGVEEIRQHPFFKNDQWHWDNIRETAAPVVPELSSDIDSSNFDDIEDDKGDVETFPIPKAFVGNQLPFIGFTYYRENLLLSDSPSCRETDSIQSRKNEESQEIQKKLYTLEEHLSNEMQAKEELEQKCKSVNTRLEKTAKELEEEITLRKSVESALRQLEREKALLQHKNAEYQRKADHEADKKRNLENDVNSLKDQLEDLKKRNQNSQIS

SMILES	IC50 [1]	IC50 [2]	Selectivity for ROCK2 over ROCK1 (IC50 ROCK1 / IC50 ROCK2) [2]
CC(C)C[C@H](N)C(=O)Nc1cccc(-c2nnc(Nc3ccc4[nH]ncc4c3Cl)s2)c1 [Example 35BA]	< 1 µM	< 1 µM	>5
CC(=O)Nc1cc(F)c(F)c(-c2nnc(Nc3ccc4[nH]ncc4c3Cl)s2)c1.O=C(O)C(F)(F)F [Example 35BB]	> 30 µM	< 1 µM	>100
CC(=O)Nc1cccc(-c2nnc(N(C)c3ccc4[nH]ncc4c3Cl)s2)c1 [Example 35BC]	> 30 µM	< 1 µM	>75
O=C(Cc1ncc[nH]1)Nc1cccc(-c2nnc(Nc3ccc4[nH]ncc4c3Cl)s2)c1 [Example 35BD]	> 30 µM	< 1 µM	>100
CCOc1ccc(CC(=O)Nc2cccc(-c3nnc(Nc4ccc5[nH]ncc5c4Cl)s3)c2)cc1 [Example 35BE]	> 30 µM	< 1 µM	>100
NC(Cc1ccc(Cl)cc1)C(=O)Nc1cccc(-c2nnc(Nc3ccc4[nH]ncc4c3Cl)s2)c1 (stereo not shown) [Example 35BF]	1 to 15 µM	< 1 µM	>5
O=C(Cc1ccon1)Nc1cccc(-c2nnc(Nc3ccc4[nH]ncc4c3Cl)s2)c1 [Example 35BG]	> 30 µM	< 1 µM	>100
Cn1cc(CC(=O)Nc2cccc(-c3nnc(Nc4ccc5[nH]ncc5c4Cl)s3)c2)cn1 [Example 35BH]	< 1 µM	< 1 µM	>100
Cc1cnn(CC(=O)Nc2cccc(-c3nnc(Nc4ccc5[nH]ncc5c4Cl)s3)c2)c1 [Example 35BI]	1 to 15 µM	< 1 µM	>100
N#Cc1ccc(CC(=O)Nc2cccc(-c3nnc(Nc4ccc5[nH]ncc5c4Cl)s3)c2)cc1 [Example 35BK]	> 30 µM	< 1 µM	>100
Cn1ccnc1CC(=O)Nc1cccc(-c2nnc(Nc3ccc4[nH]ncc4c3Cl)s2)c1 [Example 35BL]	> 30 µM	< 1 µM	>100
O=C(Cc1ccccn1)Nc1cccc(-c2nnc(Nc3ccc4[nH]ncc4c3Cl)s2)c1 [Example 35BM]	> 30 µM	< 1 µM	>100
Cc1cc(CC(=O)Nc2cccc(-c3nnc(Nc4ccc5[nH]ncc5c4Cl)s3)c2)on1 [Example 35BN]	< 1 µM	< 1 µM	>5
O=C(Cc1ccc(F)cc1)Nc1cccc(-c2nnc(Nc3ccc4[nH]ncc4c3Cl)s2)c1 [Example 35BO]	< 1 µM	< 1 µM	>50
O=C(Cc1cnccn1)Nc1cccc(-c2nnc(Nc3ccc4[nH]ncc4c3Cl)s2)c1 [Example 35BP]	< 1 µM	< 1 µM	>5
COc1ccc(CC(=O)Nc2cccc(-c3nnc(Nc4ccc5[nH]ncc5c4Cl)s3)c2)cc1 [Example 35BQ]	< 1 µM	< 1 µM	>5
O=C(Nc1cccc(-c2nnc(Nc3ccc4[nH]ncc4c3Cl)s2)c1)c1cnccn1 [Example 35BR]	> 30 µM	< 1 µM	>100
COc1ccc(C(=O)Nc2cccc(-c3nnc(Nc4ccc5[nH]ncc5c4Cl)s3)c2)cc1 [Example 35BS]	< 1 µM	< 1 µM	<5
COc1cccc(C(=O)Nc2cccc(-c3nnc(Nc4ccc5[nH]ncc5c4Cl)s3)c2)c1 [Example 35BT]	< 1 µM	< 1 µM	>5
Cn1cc(C(=O)Nc2cncc(-c3nnc(Nc4ccc5[nH]ncc5c4Cl)s3)c2)cn1 [Example 35BU]	< 1 µM	< 1 µM	>5
CC1(C(=O)Nc2cccc(-c3nnc(Nc4ccc5[nH]ncc5c4Cl)s3)c2)CCCCC1 [Example 35L]	1 to 15 µM		
CN1CC(C(=O)Nc2cccc(-c3nnc(Nc4ccc5[nH]ncc5c4Cl)s3)c2)C1 [Example 35X]	1 to 15 µM		
CCOC(=O)N(c1nnc(-c2cccc(NC(=O)Cc3ccc(F)cc3)c2)s1)c1ccc2[nH]ncc2c1Cl [Example 54A]		1 to 15 µM	
Clc1c(Nc2nnc(-c3cccc4c3ncn4CCN3CCCC3)s2)ccc2[nH]ncc12 [Example 56A]		1 to 15 µM	
